Experimental data as given in ChEMBL document CHEMBL1123917, “Antiulcer agents. 3. Structure-activity-toxicity relationships of substituted imidazo[1,2-a]pyridines and a related imidazo[1,2-a]pyrazine” (1987).
Calls of active or inactive are those of the source. The calls are words filed in the database; no cut-off is given here.

Tests used:
[1] = test system: Rattus norvegicus; assay: Cytoprotective activity against ethyle alcohol induced ulcers was determined in rats by peroral administration of the compound; type: functional; conditions: po
[2] = species: Mus musculus; assay: Organ weight ratio was determined for the compound :control
[3] = species: Mus musculus; assay: Organ weight ratio was determined for the compound with respect to (8-Benzyloxy-2-methyl-imidazo[1,2-a]pyridin-3-yl) compound
[4] = species: Mus musculus; assay: Histopathology of the stomach was determined; N means normal variation in the presence of the compound.
[5] = test system: Canis familiaris; assay: Inhibition of gastric acid secretion stimulated by histamine in dog was determined by peroral administration; IA means inactive; type: functional, organism-based; conditions: Canis lupus familiaris; Stomach
[6] = test system: Mus musculus; assay: Organ weight (stomach) was determined after administration of the compound
[7] = test system: Canis familiaris; assay: Inhibition of gastric acid secretion stimulated by histamine in dog was determined by peroral administration; value ranges from 3.2-50.6; type: functional; conditions: Canis lupus familiaris, Stomach, po
[8] = test system: Canis familiaris; assay: Inhibition of gastric acid secretion stimulated by histamine in dog was determined by peroral administration; value ranges from 2.3-59.2; type: functional; conditions: Canis lupus familiaris, Stomach, po
[9] = test system: Canis familiaris; assay: Inhibition of gastric acid secretion stimulated by histamine in dog was determined by peroral administration of the compound; type: functional; conditions: Canis lupus familiaris, Stomach, po
[10] = species: Mus musculus; assay: Histopathology of the stomach was determined as HGM (Hyperplasia of grandular mucosa)in the presence of the compound.
[11] = test system: Canis familiaris; assay: Inhibition of gastric acid secretion stimulated by histamine in dog was determined by peroral administration; value ranges from 0.6-3.9; type: functional; conditions: Canis lupus familiaris, Stomach, po
[12] = test system: Canis familiaris; assay: Inhibition of gastric acid secretion stimulated by histamine in dog was determined by peroral administration; IA means inactive oral dose of 8 mg/kg; type: functional, organism-based; set-up: dose 8 mg/kg; conditions: Canis lupus familiaris; Stomach
[13] = test system: Canis familiaris; assay: Inhibition of gastric acid secretion stimulated by histamine in dog was determined by peroral administration confidence limits (p=0.05.); value ranges from 2.1-14.0; type: functional; conditions: Canis lupus familiaris, Stomach, po
[14] = test system: Canis familiaris; assay: Percent inhibition of Histamine stimulated gastric acid secretion at oral dosage of 8 mg/kg; type: functional; conditions: Canis lupus familiaris, Stomach
[15] = test system: Canis familiaris; assay: Percent inhibition of Histamine stimulated gastric acid secretion at oral dosage of 4 mg/kg; type: functional; conditions: Canis lupus familiaris, Stomach
[16] = test system: Rattus norvegicus; assay: Cytoprotective activity against ethyle alcohol induced ulcers was determined in rats by peroral administration; IA means inactive; type: functional, organism-based
[17] = test system: Canis familiaris; assay: Inhibition of gastric acid secretion stimulated by histamine in dog was determined by peroral administration; the regression was not significant; type: functional; conditions: Canis lupus familiaris, Stomach, po
[18] = test system: Canis familiaris; assay: Percent inhibition of Histamine -stimulated gastric acid secretion at the oral dosage of 8 mg/kg.; type: functional; conditions: Canis lupus familiaris, Stomach
[19] = test system: Canis familiaris; assay: Percent inhibition of Histamine -stimulated gastric acid secretion at the oral dosage of 4 mg/kg.; type: functional; conditions: Canis lupus familiaris, Stomach
[20] = species: Mus musculus; assay: Histopathology of the stomach was determined as HGM (Hyperplasia of grandular mucosa) in the presence of the compound.

| SMILES | ED50 [1] [mg/kg] | Organ weight ratio [2] | Organ weight ratio [3] | Histopathology [4] | Organ weight [6] [g] | Histopathology [10] | also measured |
| --- | --- | --- | --- | --- | --- | --- | --- |
| Cc1cn2cccc(OCc3ccccc3)c2n1 | 4 | 1 | 0.7 | Within normal variation | 0.84 | – | ED50 [5]: inactive |
| Cc1ccn2c(CC#N)c(C)nc2c1OCc1ccccc1 | 13 | 1.1 | 0.8 | Within normal variation | 0.9 | – | ED50 [7]: 7.1 mg/kg |
| Cc1nc2c(CCc3ccccc3)cccn2c1N | 9 | 1.1 | 0.8 | Within normal variation | 0.88 | – | ED50 [8]: 6.8 mg/kg |
| Cc1nc2c(NCc3ccccc3)cccn2c1CC#N | 2 | 1.2 | 0.8 | – | 0.9 | Hyperplasia of glandular mucosa | ED50 [9]: 6.7 mg/kg |
| Cc1nc2c(OCc3ccccc3)nccn2c1N | 5 | 1.1 | 0.8 | Within normal variation | 0.86 | – | ED50 [11]: 1.4 mg/kg |
| Cc1nc2ccc(CCc3ccccc3)cn2c1CC#N | 2.7 | 1 | 0.7 | Within normal variation | 0.81 | – | ED50 [12]: inactive |
| Cc1nc2c(OCc3ccccc3)cccn2c1CC#N | 3 | 1.4 | 1 | – | 1.13 | Hyperplasia of glandular mucosa | ED50 [13]: 4.4 mg/kg |
| Cc1cn2c(OCc3ccccc3)cccc2n1 | 1 | 0.9 | 0.7 | Within normal variation | 0.76 | – | ED50 [5]: inactive |
| Cc1c(CC#N)nc2c(OCc3ccccc3)cccn12 | – | 1.2 | 0.9 | – | 0.98 | Hyperplasia of glandular mucosa | ED50 [9]: > 4.4 mg/kg; inhibition in vivo at 8 mg/kg [14]: 91%; inhibition in vivo at 4 mg/kg [15]: 19%; ED50 [16]: inactive |
| Cc1nc2c(O)cccn2c1CC#N | – | 1 | 0.7 | Within normal variation | 0.8 | – | ED50 [5]: inactive; ED50 [16]: inactive |
| Cc1nc2ccc(CCc3ccccc3)cn2c1N | 5.7 | 1 | 0.7 | Within normal variation | 0.81 | – | ED50 [5]: inactive |
| Cc1nc2c(OCc3ccccc3)cccn2c1N | 6 | 1.2 | 1 | – | 1.09 | Hyperplasia of glandular mucosa | ED50 [17]: 2 mg/kg |
| Cc1nc2c(CCc3ccccc3)cccn2c1CC#N | 7 | 1.2 | 0.9 | – | 0.99 | Hyperplasia of glandular mucosa | inhibition in vivo at 8 mg/kg [18]: 83%; ED50 [9]: > 4.4 mg/kg; inhibition in vivo at 4 mg/kg [19]: 3% |
| Cc1nc2c(OCc3ccsc3)cccn2c1CC#N | 2 | 1.5 | 1 | – | 1.12 | – | ED50 [9]: 2.7 mg/kg; Histopathology [20]: Hyperplasia of glandular mucosa |
